Where two headings read alike, the source gives them in different places.
Columns and labels:
Type in all cases: cell-based, mouse
[1] = system: PGE2 production; test: Inhibitory activity on PGE2 production in LPS-treated Raw264.7 cells (PGE2 immunoassay); details: LPS 1 μg/mL; for IC50: mean of three measurements, read-out: Inhibition of PGE2 production IC50
Protocol: Raw264.7 cells (macrophage cell line from mouse) were obtained from Korean Cell Line Bank (KCLB) and cultured in Dulbecco's modified Eagle's medium (DMEM) containing 10% Fetal Bovine Serum (FBS), penicillin (100 units/mL), streptomycin sulfate (100 μg/mL) at 37° C. and 5% CO2 in humidified environment. RAW264.7 cells at 5×10^5 cells/mL were seeded at 1 mL/well in 24 wells using DMEM, left overnight, replaced with a fresh medium and then treated with a test compound of an appropriate concentration. The cells were incubated for 1 hr and then treated with LPS at 1 μg/mL and incubated for 24 hrs (or proper period). A supernatant was taken and diluted five times. 150 μL of an analysis buffer was added to Non Specific Binding (NSB) well, and 100 μL of an analysis buffer was added to zero point standard (B0) well. 100 μL of a standard sample was added to the other wells and 50 μL of PGE2 conjugate was added (excluding NSB). 50 μL of PGE2 antibody solution was added and wells were shaken for 2 hrs. Each well was suctioned and washed with a wash buffer five times. Each 200 μL of para-Nitrophenyl phosphate (pNPP) substrate was added to the all wells and the wells were stored in a bench at room temperature for 1 hr. 50 μL of stop solution was added and an absorbance was measured at 405 nm. The amount of PGE2 was quantified using the measured absorbance and a standard curve and compared to a group treated with LPS only to obtain a concentration inhibiting 50% (IC50). The results are shown in the following Table 1 and the presented values are means of three measurements.

[2] = system: Raw264.7 cells; test: Measurement of cell viability (MTT); details: with LPS 1 μg/mL, 24 hrs, mean of three measurements, read-out: Cell viability (IC50 for cell toxicity)
Protocol: (§1) Raw264.7 cells (macrophage cell line from mouse) were obtained from Korean Cell Line Bank (KCLB) and cultured in Dulbecco's modified Eagle's medium containing 10% FBS, penicillin (100 units/ml), streptomycin sulfate (100 μg/ml) at 37° C. and 5% CO2 in humidified environment.
(§2) Cells were collected by centrifugation and scraping, and seeded at 1×10^5 cells/well in a 96 well plate containing 100 μl of RPMI 1640 medium with 10% FBS. 3β, 4β-epoxy-8α-isobutyryloxyguaia-1(10), 11, (13)-diene-12.6α-olide was dissolved in dimethylsulfoxide (DMSO) solvent and the concentration of DMSO was not more than 0.1% in all experiments. Next day, test compounds and LPS (1 μg/mL) were added and the plate were cultured for 24 hrs. After washing cells once, 50 μl of the medium containing 5 mg/ml MTT but without FBS was added and cells were cultured at 37° C. for 4 hrs. And then, the medium was removed, formazan blue formed in the cells was dissolved in 100 μl of DMSO, and an absorbance was measured at 540 nm to obtain IC50 values for cell toxicity. […] The results are shown in the above Table 1 and the values are means of three measurements.

[3] = Measurement of cell viability (MTT); details: mouse, Raw264.7 macrophage cells, Raw264.7 cells, with LPS 1 μg/mL, mean of three measurements, read-out: Cell viability (IC50 for cell toxicity)
Protocol: as §1, §2

Row | Compound | IC50 [1] [nM] | Inhibition of PGE2 production % ([1]; compound at 0.1 μM) | IC50 [2] [nM] | also measured
1 | O=C(NN(c1ccccc1)S(=O)(=O)c1ccc(C(F)(F)F)cc1)Oc1ccc(OCc2ccccc2)cc1 [Example 21, N-phenyl-N′-(4-benzyloxyphenoxycarbonyl)-4-trifluoromethylphenylsulfonhydrazide] | 47.1 | 65.5 (0.1) % | > 100 | 
2 | CC(C)c1ccc(S(=O)(=O)N(NC(=O)Oc2ccc(Oc3ccccc3)cc2)c2ccccc2)cc1 [Example 24, N-phenyl-N′-(4-phenoxyphenoxycarbonyl)-4-i-propylphenylsulfonhydrazide] | 130 | 65.4 (0.1) % | > 1000 | 
3 | Cc1ccc(S(=O)(=O)N(NC(=O)Oc2ccc3c(c2)CCC3)c2ccccc2)cc1 [Example 25, N-phenyl-N′-(2,3-dihydro-1H-inden-5-oxycarbonyl)-4-methylphenylsulfonhydrazide] | 66.7 | 40.4 (0.1) % | > 1000 | 
4 | O=C(NN(c1ccccc1)S(=O)(=O)c1ccc(Cl)cc1)Oc1ccc2c(c1)CCC2 [Example 26, N-phenyl-N′-(2,3-dihydro-1H-inden-5-oxycarbonyl)-4-chlorophenylsulfonhydrazide] | 70.5 | 45.8 (0.1) % | > 1000 | 
5 | N-phenyl-N′-(4-benzyloxyphenoxycarbonyl)-2-mesitylenesulfonhydrazide [Example 17] | 81.5 | 60.0 (0.1) % | > 1000 | 
6 | COc1ccccc1OC(=O)NN(c1ccccc1)S(=O)(=O)c1ccc(C)cc1 [Example 3, N-phenyl-N′-(2-methoxyphenoxycarbonyl)-4-methylphenylsulfonhydrazide] | 34 | 91.9 (0.1) % | > 100 | 
7 | CC(C)(C)c1ccc(S(=O)(=O)N(NC(=O)Oc2ccc(Oc3ccccc3)cc2)c2ccccc2)cc1 [Example 23, N-phenyl-N′-(4-phenoxyphenoxycarbonyl)-4-t-butylphenylsulfonhydrazide] | 99.6 | 67.9 (0.1) % | > 1000 | 
8 | Cc1ccc(OC(=O)NN(c2ccccc2)S(=O)(=O)c2ccc(C)cc2)cc1 [Example 2, N-phenyl-N′-(4-methylphenoxycarbonyl)-4-methylphenylsulfonhydrazide] | 1010 |  | > 10000 | Inhibition of PGE2 production % ([1]; compound at 1 μM): 49.7 (1)^ %
9 | COc1ccc(S(=O)(=O)N(NC(=O)Oc2ccc(Oc3ccccc3)cc2)c2ccccc2)cc1 [Example 6, N-phenyl-N′-(4-phenoxyphenoxycarbonyl)-4-methoxyphenylsulfonhydrazide] | 17.1 | 93.4 (0.1) % | > 100 | 
10 | CCc1ccc(OC(=O)NN(c2ccccc2)S(=O)(=O)c2ccc(OC)cc2)cc1 [Example 7, N-phenyl-N′-(4-ethylphenoxycarbonyl)-4-methoxyphenylsulfonhydrazide] | 28.5 | 90.9 (0.1) % | > 100 | 
11 | COc1ccc(S(=O)(=O)N(NC(=O)Oc2ccc(OCc3ccccc3)cc2)c2ccccc2)cc1 [Example 4, N-phenyl-N′-(4-benzyloxyphenoxycarbonyl)-4-methoxyphenylsulfonhydrazide] | 50 | 62.8 (0.1) % | > 1000 | 
12 | N-phenyl-N′-(4-phenoxyphenoxycarbonyl)-2-mesitylenesulfonhydrazide [Example 16] | 177 | 39.8 (0.1) % | > 1000 | 
13 | O=C(NN(c1ccccc1)S(=O)(=O)c1ccc(Cl)cc1)Oc1ccc(OCc2ccccc2)cc1 [Example 15, N-phenyl-N′-(4-benzyloxyphenoxycarbonyl)-4-chlorophenylsulfonhydrazide] | 3.42 |  | > 10000 | Inhibition of PGE2 production % ([1]; compound at 0.01 μM): 84.5 (0.01) %
14 | CCCc1ccc(S(=O)(=O)N(NC(=O)Oc2ccc(Oc3ccccc3)cc2)c2ccccc2)cc1 [Example 20, N-phenyl-N′-(4-phenoxyphenoxycarbonyl)-4-n-propylphenylsulfonhydrazide] | 134 | 45.4 (0.1) % | > 10000 | 
15 | COc1ccc(S(=O)(=O)N(NC(=O)Oc2ccc3c(c2)CCC3)c2ccccc2)cc1 [Example 9, N-phenyl-N′-(2,3-dihydro-1H-inden-5-oxycarbonyl)-4-methoxyphenylsulfonhydrazide] | 4.5 |  | > 100 | Inhibition of PGE2 production % ([1]; compound at 0.01 μM): 79.5 (0.01) %
16 | CCOc1ccc(OC(=O)NN(c2ccccc2)S(=O)(=O)c2ccc(Cl)cc2)cc1 [Example 13, N-phenyl-N′-(4-ethoxyphenoxycarbonyl)-4-chlorophenylsulfonhydrazide] | 5.02 |  | > 10000 | Inhibition of PGE2 production % ([1]; compound at 0.01 μM): 74.8 (0.01) %
17 | O=C(NN(c1ccccc1)S(=O)(=O)c1ccc(Cl)cc1)Oc1ccccc1 [Example 10, N-phenyl-N′-phenoxycarbonyl-4-chlorophenylsulfonhydrazide] | 5.42 |  | > 10000 | Inhibition of PGE2 production % ([1]; compound at 0.01 μM): 81.8 (0.01) %
18 | CC(C)(C)c1ccc(S(=O)(=O)N(NC(=O)Oc2ccc(OCc3ccccc3)cc2)c2ccccc2)cc1 [Example 22, N-phenyl-N′-(4-benzyloxyphenoxycarbonyl)-4-t-butylphenylsulfonhydrazide] | 56.9 | 69.8 (0.1) % | > 100 | 
19 | COc1ccccc1OC(=O)NN(c1ccccc1)S(=O)(=O)c1ccc(Cl)cc1 [Example 11, N-phenyl-N′-(2-methoxyphenoxycarbonyl)-4-chlorophenylsulfonhydrazide] | 3.52 |  | > 10000 | Inhibition of PGE2 production % ([1]; compound at 0.01 μM): 85.9 (0.01) %
20 | Cc1ccc(S(=O)(=O)N(NC(=O)Oc2ccc(OCc3ccccc3)cc2)c2ccccc2)cc1 [Example 8, N-phenyl-N′-(4-benzyloxyphenoxycarbonyl)-4-methylphenylsulfonhydrazide] | 32.6 | 66.6 (0.1) % | > 100 | 
21 | O=C(NN(c1ccccc1)S(=O)(=O)c1ccc(Cl)cc1)Oc1ccc(Oc2ccccc2)cc1 [Example 14, N-phenyl-N′-(4-phenoxyphenoxycarbonyl)-4-chlorophenylsulfonhydrazide] | 5.09 |  | > 10000 | Inhibition of PGE2 production % ([1]; compound at 0.01 μM): 67.8 (0.01) %
22 | CCc1ccc(OC(=O)NN(c2ccccc2)S(=O)(=O)c2ccc(Cl)cc2)cc1 [Example 12, N-phenyl-N′-(4-ethylphenoxycarbonyl)-4-chlorophenylsulfonhydrazide] | 3.7 |  | > 10000 | Inhibition of PGE2 production % ([1]; compound at 0.01 μM): 80.5 (0.01) %
23 | O=C(Oc1ccccc1)N(NS(=O)(=O)c1ccccc1)c1ccccc1 [Comparative Example 1, N-phenyl-N′-(phenoxycarbonyl)-phenylsulfonhydrazide, reference compound] |  |  |  | IC50 ([1]; Mus musculus): 5700 nM; inhibition at 10 µM ([1]; Mus musculus, compound at 10 μM): 84.4%; IC50 at 24 h [3]: > 10000 nM
24 | CCOc1ccc(OC(=O)NN(c2ccccc2)S(=O)(=O)c2ccc(OC)cc2)cc1 [Example 5, N-phenyl-N′-(4-ethoxyphenoxycarbonyl)-4-methoxyphenylsulfonhydrazide] | 20.5 | 94.1 (0.1) % | > 100 | 
25 | Cc1cc(C)c(S(=O)(=O)N(Nc2ccccc2)C(=O)Oc2ccc3c(c2)CCC3)c(C)c1 [Example 28] |  |  |  | IC50 ([1]; Mus musculus): 58.6 nM; inhibition at 0.1 µM ([1]; Mus musculus, compound at 0.1 μM): 57.2%; IC50 at 24 h [3]: > 1000 nM
26 | O=C(NN(c1ccccc1)S(=O)(=O)c1ccc(C(F)(F)F)cc1)Oc1ccc2c(c1)CCC2 [Example 27, N-phenyl-N′-(2,3-dihydro-1H-inden-5-oxycarbonyl)-4-trifluorophenylsulfonhydrazide] | 55.8 | 51.1 (0.1) % | > 1000 | 

From patent publication US20180064665A1 (UNIVERSITY-INDUSTRY COOPERATION GROUP OF KYUNG HEE …, priority 2015, published 2018)
